Results taken from publication PMC10609152, “Synthesis, Computational, and Anticancer In Vitro Investigations of Aminobenzylnaphthols Derived from 2-Naphtol, Benzaldehydes, and α-Aminoacids via the Betti Reaction” (Molecules, 2023).
Read-outs that look alike come from different tables or passages of the source.

How the values were obtained:
BxPC-3 cells [1] = assay: MTT assay, BxPC-3; assay type: cell-based; conditions: Homo sapiens
From the text: (§1) The MTT assay, also known as the 3-(4,5-dimethylthiazol-2-yl)-2,5-diphenyltetrazolium bromide assay, is a colorimetric assay used in biological and biomedical research to determine cell viability and proliferation. The MTT assay works on the assumption that live cells with active metabolism convert MTT into formazan crystals. These crystals are insoluble; however, they can be dissolved in an organic solvent such as DMSO to produce a colorful solution. The color intensity is proportional to the number of viable cells present in the culture.
(§2) BxPC-3, HT-29, and WI-38 cells were seeded on 96-well plates at a density of approximately 8–10 × 10^3 cells per 100 µL medium/well. Cells were allowed to grow for 24 h in controlled conditions (37 °C; 5% CO2). […] The experimental design included nontreated controls and blanks (wells without cells). Following 24 or 72 h of culture with the investigated compounds, 20 μL of MTT tetrazolium salt (5 mg/mL in PBS) was added to each well, and the plates were incubated for 3 h in a humidified environment (37 °C; 5% CO2). The solutions were withdrawn after incubation, and 100 μL of DMSO was added to dissolve the formazan complexes. Afterward, a spectrophotometer (microplate reader Power Wave XS BioTek Instruments, Inc., Winooski, VT, USA) reading at 570 nm was conducted. The experiments were carried out in duplicates.
(§3) GraphPad Prism 7 software was used to calculate the concentration of an MMZ compound reflecting a 50% growth inhibition (IC50). IC50 is defined as a concentration of tested compound that leads to a reduction in cell pool viability by 50% compared to the negative control (accepted as 100%). % cell viability=Absorbance value of treated cells−Absorbance value of blank/(Absorbance value of untreated cells−Absorbance value of blank)×100%

HT-29 cells [2] = assay: MTT assay, HT-29; assay type: cell-based; conditions: Homo sapiens
From the text: as §1, §2, §3

BxPC-3 cells [3] = assay: AO/EB double staining, BxPC-3; assay type: cell-based; conditions: BxPC-3, IC50 concentration, 72 h
Description: (§4) BxPC-3 and HT-29 cells were plated at a density of 5 × 10^4 cells per well in 12-well plates. After 24 h, the cells were treated with MMZ-45AA and MMZ-140C at concentrations corresponding to their IC50 values obtained from the MTT assay. The cells were exposed to the compounds for 72 h. Following the incubation period, the cells were treated with a mixture of fluorochromes (100 µM AO/EB in a 1:1 ratio, v/v) for 5 min at 37 °C in the absence of light.
(§5) The staining technique allowed for the differentiation of viable, apoptotic, and necrotic cells based on their varying uptake of fluorescent DNA-binding dyes and the degree of chromatin condensation in the stained nuclei. A fluorescence microscope (Olympus BX60 F5, Olympus Optical Co., Ltd., Nagano, Japan) with an excitation wavelength of 360 nm was used to analyze the cells. The results were obtained from three independent experiments.

HT-29 cells [4] = assay: AO/EB double staining, HT-29; assay type: cell-based; conditions: HT-29, IC50 concentration, 72 h
Description: as §4, §5

BxPC-3 cells [5] = assay: Annexin V-FITC/PI flow cytometry, BxPC-3; assay type: cell-based; conditions: Annexin V-FITC, BxPC-3, IC50 concentration, 72 h
Description: (§6) The Annexin V-FITC Apoptosis Detection Kit was utilized to assess the induction of apoptosis following 72 h incubation with the tested MMZ compounds. BxPC-3 and HT-29 cells were plated at a density of 4 × 10^5 cells in 6-well plates. After 24 h, the cells were exposed to IC50 concentrations of MMZ-45AA and […], determined in the MTT assay. The experimental setup included a vehicle control with a final solvent concentration of less than 0.5% v/v DMSO, and cells treated with 2 µM SN-38 (the active metabolite of irinotecan) as a positive control. The cells were then incubated for an additional 72 h at 37 °C with 5% CO2.
(§7) Following the exposure period, the cells were trypsinized, transferred to cytometric tubes, and allowed to incubate for 40 min. Subsequently, they were centrifuged at 1400 rpm for 10 min at 4 °C. The supernatant was then removed, and the cell pellet was diluted in 1 mL PBS. The remaining steps were carried out according to the instructions provided by the manufacturer of the Annexin V-FITC Apoptosis Detection Kit. The results reported in this study were obtained from three independent experiments

HT-29 cells [6] = assay: Annexin V-FITC/PI flow cytometry, HT-29; assay type: cell-based; conditions: Annexin V-FITC, HT-29, IC50 concentration, 72 h
Description: as §6, §7

[7] = MTT cell viability, WI-38 normal fibroblasts; assay type: cell-based; conditions: human, WI-38 normal fibroblast cells, read-out: % cell viability ± SD; for viability at 72 h: WI-38, 72 h
Description: as §2, §3

A549 = system: A549; set-up: method as in doi:10.31083/j.jmcm.2019.02.7181; conditions: cited from earlier work
HBL100 = system: HBL100; set-up: method as in doi:10.31083/j.jmcm.2019.02.7181; conditions: cited from earlier work
HeLa = system: HeLa; set-up: method as in doi:10.31083/j.jmcm.2019.02.7181; conditions: cited from earlier work
SW1573 = system: SW1573; set-up: method as in doi:10.31083/j.jmcm.2019.02.7181; conditions: cited from earlier work
T47D = system: T47D; set-up: method as in doi:10.31083/j.jmcm.2019.02.7181; conditions: cited from earlier work
[8] = BxPC-3, 24-h MTT, independent experiment 1, read-out: IC50(1)
[9] = BxPC-3, 24-h MTT, independent experiment 2, read-out: IC50(2)
[10] = BxPC-3, 24-h MTT, read-out: Mean IC50 ± SD
[11] = BxPC-3, 72-h MTT, independent experiment 1, read-out: IC50(1)
[12] = BxPC-3, 72-h MTT, independent experiment 2, read-out: IC50(2)
[13] = BxPC-3, 72-h MTT, read-out: Mean IC50 ± SD
[14] = HT-29, 24-h MTT, independent experiment 1, read-out: IC50(1)
[15] = HT-29, 24-h MTT, independent experiment 2, read-out: IC50(2)
[16] = HT-29, 24-h MTT, read-out: Mean IC50 ± SD
[17] = HT-29, 72-h MTT, independent experiment 1, read-out: IC50(1)
[18] = HT-29, 72-h MTT, independent experiment 2, read-out: IC50(2)
[19] = HT-29, 72-h MTT, read-out: Mean IC50 ± SD

`COC(=O)[C@H](Cc1ccccc1)N[C@@H](c1ccccc1)c1c(O)ccc2ccccc12` (mixture of isomers) [MMZ-45AA, (S,S) and (R,R)-methyl ((2-hydroxynaphthalen-1-yl)(phenyl)methyl)-L-phenylalaninate] showed an IC50 (BxPC-3 cells [1]; [8]) of 58.1 µM, an IC50 (BxPC-3 cells [1]; [9]) of 38 µM and an IC50 (BxPC-3 cells [1]; [10]) of 48 ± 14.2 µM. For the same compound, the IC50 (BxPC-3 cells [1]; [11]) was 12.1 µM, the IC50 (BxPC-3 cells [1]; [12]) was 14.4 µM and the IC50 (BxPC-3 cells [1]; [13]) was 13.3 µM. For the same compound, the IC50 (HT-29 cells [2]; [14]) was 40.3 µM, the IC50 (HT-29 cells [2]; [15]) was 48.1 µM and the IC50 (HT-29 cells [2]; [16]) was 44.2 ± 5.49 µM. For the same compound, the IC50 (HT-29 cells [2]; [17]) was 12.2 µM, the IC50 (HT-29 cells [2]; [18]) was 11.9 µM and the IC50 (HT-29 cells [2]; [19]) was 12.1 ± 0.247 µM. For the same compound, the “% of apoptotic cells” value (BxPC-3 cells [3]) was 21.9 ± 3.4%, the “% of apoptotic cells” value (HT-29 cells [4]) was 15.93 ± 3% and the “% of apoptotic cells” value (BxPC-3 cells [5]) was 38.7 ± 5.43%. The “% of apoptotic cells” value (HT-29 cells [6]) was 24.23 ± 1.1%.
`COC(=O)[C@@H]1CCCN1[C@@H](c1ccccc1)c1c(O)ccc2ccccc12` (mixture of isomers) [MMZ-140C, (S,S) and (R,R)-methyl ((2-hydroxynaphthalen-1-yl)(phenyl)methyl)-L-prolinate] showed an IC50 (BxPC-3 cells [1]; [8]) of 23.5 µM, an IC50 (BxPC-3 cells [1]; [9]) of 36.8 µM and an IC50 (BxPC-3 cells [1]; [10]) of 30.2 ± 9.39 µM. It also gave an IC50 (BxPC-3 cells [1]; [11]) of 31.7 µM, an IC50 (BxPC-3 cells [1]; [12]) of 33.2 µM and an IC50 (BxPC-3 cells [1]; [13]) of 32.4 ± 1.09 µM. The IC50 (HT-29 cells [2]; [14]) was 35.5 µM, the IC50 (HT-29 cells [2]; [15]) was 40 µM and the IC50 (HT-29 cells [2]; [16]) was 37.8 ± 3.2 µM. For the same compound, the IC50 (HT-29 cells [2]; [17]) was 9.01 µM, the IC50 (HT-29 cells [2]; [18]) was 14.1 µM and the IC50 (HT-29 cells [2]; [19]) was 11.6 µM. It also gave a viability at 24 h ([7]; WI-38, 24 h, compound at IC50 concentration obtained for HT-29 cells) of 82.9 ± 2.06%, a viability at 72 h ([7]; compound at IC50 concentration estimated for BxPC-3 cells) of 82.3 ± 6.96% and a viability at 72 h ([7]; compound at IC50 concentration obtained for HT-29 cells) of 84.2 ± 2.56%. For the same compound, the “% of apoptotic cells” value (BxPC-3 cells [3]) was “No statistically significant changes”, the “% of apoptotic cells” value (HT-29 cells [4]) was 11.73 ± 0.38% and the “% of apoptotic cells” value (BxPC-3 cells [5]) was 33.1 ± 1.12%. The “% of apoptotic cells” value (HT-29 cells [6]) was 15.13 ± 1%.
In the case of `N.N.[Cl][Pt][Cl]` [cisplatin], the GI50 (A549) is listed as 4.9 µM.
For `Brc1ccc(C(c2cccc3ccccc23)N2CCCC2)cc1` (centres unmarked) [compound 14j], the GI50 (A549) is listed as 7.9 µM.
In the case of `N#Cc1ccc(C(NCc2ccccc2)c2cccc3ccccc23)cc1` (centres unmarked) [compound 14t], the GI50 (HBL100) is listed as 5 µM, the GI50 (HeLa) is listed as 4.1 µM and the GI50 (SW1573) is listed as 6.3 µM. The GI50 (T47D) was 8.4 µM.
